Measurements published in patent US5436229A, “Bisulfite adducts of arginine aldehydes” (Eli Lilly and Company, priority 1994, dated 1995).

Assays:
Format in all cases: biochemical
human thrombin = human thrombin (Homo sapiens, UniProt P00734); assay: Thrombin amidase inhibition (Kass), chromogenic substrate
Experimental: The assay is carried out by mixing 50 μl buffer (0.03M Tris, 0.15M NaCl, pH 7.4) with 25 μl of human thrombin solution (purified human thrombin, Enzyme Research Laboratories, South Bend, Ind., at 8 NIH units/ml) and 25 μl of test compound in a solvent (50% aqueous methanol (v:v)). Then 150 μl of an aqueous solution of the chromogenic substate (at 0.25 mg/ml) are added and the rates of hydrolysis of the substrate are measured by monitoring the reactions at 405 nm for the release of p-nitroaniline. Standard curves are constructed by plotting free thrombin concentration against hydrolysis rate. […] The amount of free inhibitor in each assay is calculated by subtracting the number of moles of bound thrombin from the number of moles of added inhibitor (test compound).
The Kass value is the hypothetical equilibrium constant for the reaction between thrombin and the test compound (I) . [formula]
Kass is calculated for a range of concentrations of test compounds and the mean value reported in units of liter per mole.

[1] = target: T1, tissue plasminogen activator (t-PA) (Homo sapiens, UniProt P00750); assay: Serine protease inhibition (Kass), t-PA
T1 construct: purchased American Diagnostica, Greenwich, Conn
Experimental: (§1) By substantially following the procedures described above for human thrombin, and using other human blood coagulation system serine proteases and using fibrinolytic system serine proteases, with the appropriate chromogenic substrates, identified below, the selectivity of the compounds of the present invention with respect to the coagulation factor serine proteases and to the fibronolytic serine proteases are evaluated as well as their substantial lack of interference with human plasma clot fibrinolysis.
(§2) Human plasmin is purchased from Boehringer Mannheim, Indianapolis, Ind.; nt-PA is purchased as single chain activity reference from American Diagnostica, Greenwich, Conn.; modified-t-PA6 (mt-PA6) is prepared at Eli Lilly and Company by procedure known in the art (See, Burck, et al., J. Biol. Chem., 265, […] (1990). Plasmin chromogenic substrate H-D-Val-Leu-Lys-p-nitroanilide and tissue plasminogen activator (t-PA) substrate H-D-Ile-Pro-Arg-p-nitroanilide are purchased from Kabi Vitrum, Stockholm, Sweden.

Bovine trypsin = target: T2, Bovine trypsin (Bos taurus, UniProt P00760); assay: Serine protease inhibition (Kass), trypsin
T2 construct: Bovine trypsin is purchased from Worthington Biochemicals; purchased Worthington Biochemicals, Freehold, N.J
T2 sequence (P00760 24-246): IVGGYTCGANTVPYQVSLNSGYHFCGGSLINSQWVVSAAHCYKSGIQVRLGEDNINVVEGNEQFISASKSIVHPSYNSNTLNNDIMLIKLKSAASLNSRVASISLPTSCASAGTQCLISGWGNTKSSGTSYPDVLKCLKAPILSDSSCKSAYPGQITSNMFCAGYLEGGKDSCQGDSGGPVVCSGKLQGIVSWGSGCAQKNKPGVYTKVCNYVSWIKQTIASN
Experimental: as §1
(§3) Human factors X, Xa, IXa, XIa, and XIIa are purchased from Enzyme Research Laboratories, South Bend, Ind.; human urokinase from Leo Pharmaceuticals, Denmark; and recombinant activated Protein C (aPC) is prepared at Eli Lilly and Co. substantially according to U.S. Pat. No. 4,981,952 incorporated by reference herein in its entirety. Chromogenic substrates: N-Benzoyl-Ile-Glu-Gly-Arg-p-nitroanilide (for factor Xa); N-Cbz-D-Arg-Gly-Arg-p-nitroanilide (for factor IXa assay as the factor Xa substrate); Pyroglutamyl-Pro-Arg-p-nitroanilide (for Factor XIa and for aPC); H-D-Pro-Phe-Arg-p-nitroanilide (for factor XIIa); and Pyroglutamyl-Gly-Arg-p-nitroanilide (for urokinase); are purchased from KabiVitrum, Stockholm, Sweden, or from Midwest Biotech, Fishers, Ind. Bovine trypsin is purchased from Worthington Biochemicals, Freehold, N.J., and human plasma kallikrein from Kabi Vitrum, Stockholm, Sweden. Chromogenic substrate H-D-Pro-Phe-Arg-p-nitroanilide for plasma kallikrein is purchased from Kabi Vitrum, Stockholm, Sweden. N-Benzoyl-Phe-Val-Arg-p-nitroanilide, the substrate for human thrombin and for trypsin, is synthesized according to procedures described above for the compounds of the present invention, using known methods of peptide coupling from commercially available reactants, or purchaed from Midwest Biotech, Fishers, Ind.

human plasma [2] = assay: Human plasma anticoagulation, prothrombin time (PT)
Experimental: (§4) Fibrinogen is prepared from in-date ACD human blood as the fraction I-2 according to previous procedures and specifications. Smith, Biochem. […] Coagulation reagents ACTIN, Thromboplastin, and Human plasma are from Baxter Healthcare Corp., Dade Division, Miami, Fla. Bovine thrombin from Parke-Davis (Detroit, Mich.) is used for coagulation assays in plasma. Coagulation assay procedures are as previously described. […] A CoAScreener coagulation instrument (American LABor, Inc.) is used for all coagulation assay measurements. […] The compounds of formula I are added to human or animal plasma over a wide range of concentrations to determine prolongation effects on the APTT, PT, and TT assays. Linear extrapolations are performed to estimate the concentrations required to double the clotting time for each assay.

Human plasmin = target: T3, Human plasmin (Homo sapiens, UniProt P00747); assay: Serine protease inhibition (Kass), plasmin
T3 construct: Human plasmin is purchased from Boehringer Mannheim; purchased Boehringer Mannheim, Indianapolis, Ind
Experimental: as §1, §2

human plasma [3] = assay: Human plasma anticoagulation, thrombin time (TT)
Experimental: as §4

factor Xa = target: T4, factor Xa (Homo sapiens, UniProt P00742); assay: Serine protease inhibition (Kass), factor Xa
T4 construct: Human factors X, Xa, IXa, XIa, and XIIa are purchased from Enzyme Research Laboratories; purchased Enzyme Research Laboratories, South Bend, Ind
Experimental: as §1, §3

human plasma [4] = assay: Human plasma anticoagulation, activated partial thromboplastin time (APTT)
Experimental: as §4

T4 sequence (P00742 235-488 limits assumed): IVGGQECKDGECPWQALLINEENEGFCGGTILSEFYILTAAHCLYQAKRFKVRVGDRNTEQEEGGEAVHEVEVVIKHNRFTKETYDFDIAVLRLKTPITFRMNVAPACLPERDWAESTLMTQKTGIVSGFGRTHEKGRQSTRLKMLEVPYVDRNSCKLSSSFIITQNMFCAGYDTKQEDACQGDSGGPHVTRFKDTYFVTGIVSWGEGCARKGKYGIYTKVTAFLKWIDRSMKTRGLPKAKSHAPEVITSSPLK
T4 sequence (P00742 41-179 partner limits assumed): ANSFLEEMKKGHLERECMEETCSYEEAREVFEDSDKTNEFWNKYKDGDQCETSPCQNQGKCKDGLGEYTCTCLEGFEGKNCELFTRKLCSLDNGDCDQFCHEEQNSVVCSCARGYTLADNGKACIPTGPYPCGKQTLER
T1 sequence (P00750 36-562): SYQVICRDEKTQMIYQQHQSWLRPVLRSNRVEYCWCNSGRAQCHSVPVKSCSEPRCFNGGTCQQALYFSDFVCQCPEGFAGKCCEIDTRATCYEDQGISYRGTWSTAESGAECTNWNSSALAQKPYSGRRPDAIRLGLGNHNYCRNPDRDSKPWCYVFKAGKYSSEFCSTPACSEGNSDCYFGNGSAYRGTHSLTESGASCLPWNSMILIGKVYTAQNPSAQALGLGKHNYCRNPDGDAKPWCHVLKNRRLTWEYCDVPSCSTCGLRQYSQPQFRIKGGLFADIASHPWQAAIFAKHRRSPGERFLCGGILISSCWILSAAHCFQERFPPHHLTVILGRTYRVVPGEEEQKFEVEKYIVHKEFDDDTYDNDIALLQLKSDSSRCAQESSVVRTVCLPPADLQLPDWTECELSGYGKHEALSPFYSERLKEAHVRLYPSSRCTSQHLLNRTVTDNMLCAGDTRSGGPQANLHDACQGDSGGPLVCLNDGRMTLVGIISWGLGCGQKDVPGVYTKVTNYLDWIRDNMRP
T3 sequence (P00747 581-810 limits assumed): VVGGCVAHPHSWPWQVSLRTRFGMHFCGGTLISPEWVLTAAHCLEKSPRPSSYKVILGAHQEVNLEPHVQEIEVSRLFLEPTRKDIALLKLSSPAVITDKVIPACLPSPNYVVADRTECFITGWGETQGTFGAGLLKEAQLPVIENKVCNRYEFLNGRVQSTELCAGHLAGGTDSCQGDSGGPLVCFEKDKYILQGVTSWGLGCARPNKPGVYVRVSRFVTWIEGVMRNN
T3 sequence (P00747 97-580 partner limits assumed): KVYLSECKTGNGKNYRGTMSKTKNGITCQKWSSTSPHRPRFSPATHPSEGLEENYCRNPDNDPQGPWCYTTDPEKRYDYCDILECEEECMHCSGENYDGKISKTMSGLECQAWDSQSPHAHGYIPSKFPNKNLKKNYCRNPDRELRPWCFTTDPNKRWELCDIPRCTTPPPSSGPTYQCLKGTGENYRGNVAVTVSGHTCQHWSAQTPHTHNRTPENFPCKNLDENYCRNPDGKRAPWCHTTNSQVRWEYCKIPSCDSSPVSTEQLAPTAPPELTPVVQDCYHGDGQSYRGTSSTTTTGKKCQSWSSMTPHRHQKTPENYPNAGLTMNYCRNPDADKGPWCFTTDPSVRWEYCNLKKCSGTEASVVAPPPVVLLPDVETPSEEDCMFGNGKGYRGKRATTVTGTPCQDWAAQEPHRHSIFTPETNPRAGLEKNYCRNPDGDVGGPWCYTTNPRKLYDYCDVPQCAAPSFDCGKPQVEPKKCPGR

Row | Compound | Kass Human Thrombin (human thrombin) [L/mol × 10^6] | Kass t-PA [1] [L/mol × 10^6] | Kass Trypsin (Bovine trypsin) [L/mol × 10^6] | 2 × Clotting time PT (human plasma [2]) | Kass Plasmin (Human plasmin) [L/mol × 10^6] | 2 × Clotting time TT (human plasma [3]) [ng/mL] | Kass Xa (factor Xa) [L/mol × 10^6] | 2 × Clotting time APTT (human plasma [4])
1 | CC(C)C1N[C@@H](C(=O)N2CCC[C@H]2C(=O)N[C@H](C=O)CCCNC(=N)N)C(C)(C)S1.Cl.Cl (stereo partly drawn) [Example 5, D-2-Isopropyl-5,5-Dimethylthiazolidinyl-4-Carbonyl-L-Prolinyl-L-Arginine Aldehyde Dihydrochloride] | 4 |  |  |  |  |  |  | 
2 | Cl.Cl.Cl.N=C(N)NCCC[C@@H](C=O)NC(=O)[C@@H]1CCCN1C(=O)[C@H]1C[C@H](Oc2ccc3ccccc3c2)CN1.O [Example 6, trans-4-(2-Naphthyloxy)-D-Prolinyl-L-Prolinyl-L-Arginine Aldehyde Trihydrochloride Monohydrate] | 21 |  |  |  |  |  |  | 
3 | Cl.Cl.Cl.N=C(N)NCCC[C@@H](C=O)NC(=O)[C@@H]1CCCN1C(=O)[C@H]1C[C@H](Sc2ccccc2)CN1.O.O.O [Example 14, trans-4-phenylthio-D-prolinyl-L-prolinyl-L-arginine aldehyde trihydrochloride trihydrate] | 37 |  |  |  |  |  |  | 
4 | Cl.Cl.N=C(N)NCCC[C@@H](C=O)NC(=O)[C@@H]1CCCN1C(=O)CN1CCCCC1.O [Example 18, 2-(2-Piperidino)acetyl-L-Pro-L-Arginine Aldehyde Dihydrochloride Monohydrate] | 1 |  |  |  |  |  |  | 
5 | Cl.Cl.N=C(N)NCCC[C@@H](C=O)NC(=O)[C@@H]1CCCN1C(=O)C1CCCNC1.O (stereo partly drawn) [Example 19, 3-piperidinocarbonyl-L-Pro-L-Arginine Aldehyde Dihydrochloride Monohydrate] | 2 |  |  |  |  |  |  | 
6 | Cl.Cl.N=C(N)NCCC[C@@H](C=O)NC(=O)[C@@H]1CCCN1C(=O)C1CNC2CCCCC21.O (stereo partly drawn) [Example 20, 3-perhydroindolylcarbonyl-L-pro-L-Arginine Aldehyde Dihydrochloride Monohydrate] | 11 |  |  |  |  |  |  | 
7 | CNC1CCCCC1C(=O)N1CCC[C@H]1C(=O)N[C@H](C=O)CCCNC(=N)N.Cl.Cl (stereo partly drawn) [Example 21, 2-(N-methyl)aminocyclohexyl-carbonyl-L-Pro-L-Arginine Aldehyde Dihydrochloride] | 18.4 |  |  |  |  |  |  | 
8 | Cl.Cn1c(C(=O)N[C@@](C)(C(=O)N2CC[C@H]2C(=O)N[C@H](C=O)CCCNC(=N)N)c2ccccc2)cc2ccccc21 [Example 23, 1-methylindole-2-carbonyl-D-(α-methyl)phenylglycine-Azt-Arg-H hydrochloride] | 79 | 0.02 | 29 | 1,980 ng/mL | 0.55 | 59 | 0.06 | 1,800 ng/mL
9 | Cl.Cl.N=C(N)NCCC[C@@H](C=O)NC(=O)[C@@H]1CCCN1C(=O)[C@@]1(Cc2ccccc2)CCCN1.O.O [Example 24, D-Prolinyl (αbenzyl)-L-Prolinyl-L-arginine aldehyde, dihydrochloride dihydrate] | 12 | 0.0034 | 14 | 3,600 ng/mL | 0.31 | 160 | 0.13 | 2,100 ng/mL
10 | Cl.Cl.N=C(N)NCCC[C@@H](C=O)NC(=O)[C@]1(Cc2ccccc2)CCCN1C(=O)[C@@H]1CCCN1 [Example 25, Prolinyl (αbenzyl)-L-Prolinyl-L-Arginine Aldehyde Dihydrochloride] | 350 | 0.0045 | 43 | 1,400 ng/mL | 0.77 | 28 | 0.27 | 960 ng/mL
11 | Cl.Cl.N=C(N)NCCC[C@@H](C=O)NC(=O)[C@@H]1CCCN1C(=O)C1(Cc2ccccc2)CCN1 (stereo partly shown) [Example 26] | 75 | 0.0028 | 17 | 1,100 ng/mL | 0.17 | 42 | 0.12 | 1,400 ng/mL
12 | CCOC(=O)N[C@H](Cc1ccccc1)C(=O)N1CCC[C@@]1(C)C(=O)N[C@H](C=O)CCCNC(=N)N.Cl [Example 27, N-ethoxycarbonyl-D-Phenylalanyl(α-methyl)-L-prolinyl-L-arginine aldehyde hydrochloride] | 75 | 0.00079 | 2.4 | 2,200 ng/mL | 0.059 | 48 | 0.044 | 2,500 ng/mL
13 | CCS(=O)(=O)N[C@H](Cc1ccccc1)C(=O)N1CCC[C@@]1(C)C(=O)N[C@H](C=O)CCCNC(=N)N.Cl [Example 28, N-ethylsulfonyl-D-Phenylalanyl(α-methyl)-L-prolinyl-L-arginine aldehyde hydrochloride] | 24 | 0.051 | 20 | 2,400 ng/mL | 0.31 | 100 | 0.11 | 1,600 ng/mL
14 | CCOC(=O)N[C@@H](Cc1ccccc1)C(=O)N1CCC[C@@]1(C)C(=O)N[C@H](C=O)CCCNC(=N)N.Cl [Example 29, N-ethoxycarbonyl-phenylalanyl(αmethyl)-L-prolinyl-L-arginine aldehyde hydrochloride] | 5.0 | 0.00072 | 1.7 | 6,100 ng/mL | 0.020 | 190 | 0.025 | 5,400 ng/mL
15 | CCCCC(CCCC)(NC(=O)OCC)C(=O)N1CCC[C@H]1C(=O)N[C@H](C=O)CCCNC(=N)N.Cl [Example 42, N-ethoxycarbonylglycinyl(α,αdi-n-butyl)-L-prolinyl-L-arginine aldehyde hydrochloride] |  | 0.010 | 38 | 2,800 ng/mL | 0.24 | 120 | 0.22 | 3,000 ng/mL
